System: cholesterol absorption from the intestine
Test: In Vivo Assay of Hypolipidemic Agents using the Rat Cholesterol Absorption Model
Parameters: species or system Female Sprague-Dawley rats
Conditions: po, 3H levels in serum three hours after 3H-cholesterol; for inhibition at 1 mg/kg: versus vehicle only control
Protocol: In Vivo Assay of Hypolipidemic Agents using the Rat Cholesterol Absorption Model. This model is based on models described by Burnett et al (2002), Bioorg. Med. Chem. Lett. 2002 Feb 11;12(3):315-8 and J. Lipid Res. 1999 Oct;40(10):1747-57. Female Sprague-Dawley rats weighing 150-250g are separated into […] and fasted overnight. The animals (4-6/group) are dosed perorally with 300µL test compounds in olive oil or suitable vehicle. Thirty minutes later, 3-5 microCuries ^3H-cholesterol per rat are delivered perorally in 300 µL olive oil. After three hours, 200 µL serum is collected, vortexed with scintillation fluid, and measured for radioactivity in a scintillation counter. Percent inhibition is defined as 100*(1-Ctest/Cctrl), where Ctest and Cctrl refer to ^3H levels in serum for the test compound and for the vehicle only control, respectively. Percent inhibition values are reported for a fixed dose. The ED50 is the dose at which the half-maximal effect on serum ^3H levels is observed for a given test compound.
Representative compounds of the invention were tested in the Rat Cholesterol Absorption model above.

Compound	inhibition at 1 mg/kg (Table 1, perorally) [%]	other results
O=C(O)c1cc(-c2ccc([C@@H]3[C@@H](CC[C@H](O)c4ccc(F)cc4)C(=O)N3c3ccc(F)cc3)cc2)ccc1O [Example 106, 4'-{(2S,3R)-1-(4-fluorophenyl)-3-[(3S)-3-(4-fluorophenyl)-3-hydroxypropyl]-4-oxoazetidin-2-yl}-4-hydroxybiphenyl-3-carboxylic acid]	66	
O=C1[C@H](CC[C@H](O)c2ccc(F)cc2)[C@@H](c2cccc(-c3cccc(O)c3)c2)N1c1ccc(F)cc1 [Example 44, (3R,4S)-1-(4-fluorophenyl)-3-[(3S)-3-(4-fluorophenyl)-3-hydroxypropyl]-4-(3'-hydroxybiphenyl-3-yl)azetidin-2-one]		inhibition at 1 mg/kg (Table 2, perorally): 24%
O=C1[C@H](CC[C@H](O)c2ccc(F)cc2)[C@@H](c2ccc(-c3ccc([C@H]4O[C@@H](CO)[C@H](O)[C@@H](O)[C@@H]4O)cc3)cc2)N1c1ccc(F)cc1 [Example 116, (1R)-1,5-anhydro-1-(4'-{(2S,3R)-1-(4-fluorophenyl)-3-[(3S)-3-(4-fluorophenyl)-3-hydroxypropyl]-4-oxoazetidin-2-yl}biphenyl-4-yl)-L-glucitol]	81	
O=C1[C@H](CC[C@H](O)c2ccc(F)cc2)[C@@H](c2ccc(-c3cccc(CO)c3)cc2)N1c1ccc(F)cc1 [Example 16, (3R,4S)-1-(4-Fluorophenyl)-3-[(3S)-3-(4-fluorophenyl)-3-hydroxypropyl]-4-(3'-(hydroxymethyl)biphenyl-4-yl)azetidin-2-one]	72	
O=C1[C@H](CC[C@H](O)c2ccc(F)cc2)[C@@H](c2ccc(-c3cccc(C(F)(F)F)c3)cc2)N1c1ccc(F)cc1 [Example 92, (3R,4S)-1-(4-fluorophenyl)-3-[(3S)-3-(4-fluorophenyl)-3-hydroxypropyl]-4-[3'-(trifluoromethyl)biphenyl-4-yl]azetidin-2-one]	17	
O=C1[C@H](CC[C@H](O)c2ccc(F)cc2)[C@@H](c2ccc(-c3cccc(O[C@H]4O[C@@H](CO)[C@H](O)[C@@H](O)[C@@H]4O)c3)cc2)N1c1ccc(F)cc1 [Example 95, 4'-{(2S,3R)-1-(4-fluorophenyl)-3-[(3S)-3-(4-fluorophenyl)-3-hydroxypropyl]-4-oxoazetidin-2-yl}biphenyl-3-yl β-L-glucopyranoside]	57	
CS(=O)(=O)c1cccc(-c2ccc([C@@H]3[C@@H](CC[C@H](O)c4ccc(F)cc4)C(=O)N3c3ccc(F)cc3)cc2)c1 [Example 10, (3R,4S)-1-(4-fluorophenyl)-3-[(3S)-3-(4-fluorophenyl)-3-hydroxypropyl]-4-[3'-(methylsulfonyl)biphenyl-4-yl]azetidin-2-one]		inhibition at 3 mg/kg (Table 1, footnote 2, perorally, 3 mg/kg): 54%
O=C1[C@H](CC[C@H](O)c2ccc(F)cc2)[C@@H](c2ccc(-c3cccc(O)c3)cc2)N1c1ccc(F)cc1 [Example 4, (3R,4S)-1-(4-Fluorophenyl)-3-[(3S)-3-(4-fluorophenyl)-3-hydroxypropyl]-4-(3'-hydroxybiphenyl-4-yl)azetidin-2-one]	72	
O=C(O)[C@@H]1O[C@H](Oc2cccc(-c3ccc([C@@H]4[C@@H](CC[C@H](O)c5ccc(F)cc5)C(=O)N4c4ccc(F)cc4)cc3)c2)[C@@H](O)[C@H](O)[C@H]1O [Example 20, 4'-{(2S,3R)-1-(4-fluorophenyl)-3-[(3S)-3-(4-fluorophenyl)-3-hydroxypropyl]-4-oxoazetidin-2-yl}biphenyl-3-yl β-L-glucopyranosiduronic acid]	59	
O=C(O)c1ccc(-c2ccc([C@@H]3[C@@H](CC[C@H](O)c4ccc(F)cc4)C(=O)N3c3ccc(F)cc3)cc2)cc1O [Example 110, 4'-{(2S,3R)-1-(4-fluorophenyl)-3-[(3S)-3-(4-fluorophenyl)-3-hydroxypropyl]-4-oxoazetidin-2-yl}-3-hydroxybiphenyl-4-carboxylic acid]	72	
Nc1ccc(-c2ccc([C@@H]3[C@@H](CC[C@H](O)c4ccc(F)cc4)C(=O)N3c3ccc(F)cc3)cc2)cc1 [Example 28, (3R,4S)-1-(4-fluorophenyl)-3-[(3S)-3-(4-fluorophenyl)-3-hydroxypropyl]-4-(4'-aminobiphenyl-4-yl)azetidin-2-one]	56	

— patent EP1832576A1, “4-Biarylyl-1-phenolyzetidin-2-ones” (Microbia Inc., priority 2003, dated 2005)
